What all share (assay): inhibition of tumour cell growth, NCI panel, 48 h
In test [1] the test system is HCC-2998 colon.
Test [2] concerns NCI-H226 lung.
Test [3] relates to TK-10 renal.
Test [4] concerns HS 578T breast.
In test [5] the test system is ACHN renal.
For test [6], the system named is SK-MEL-28 melanoma.
Test [7] concerns SNB-75 CNS.
Test [8] has as its system NCI-H522 lung.
The test system of test [9] is SK-MEL-2 melanoma.
Test [10] has as its system HCT-15 colon.
For test [11], the system named is HT29 colon.
The subject of test [12] is SF-268 CNS.
Test [13] has as its system M14 melanoma.
The subject of test [14] is OVCAR-8 ovarian.
Test [15] has as its system DU-145 prostate.
Test [16] deals with NCI/ADR-RES ovarian.

This is an account of results in PubChem BioAssay (NCI).

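1) Cells in 96-well plates. 2) Compound, 48 h, 5 concentrations. 3) Linear interpolation between surrounding doses. 4) Unreached endpoint = highest concentration. Definition used: TGI = concentration required for complete inhibition of growth.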 Bounds are passed on as bounds.

As to `COC(=O)c1c(O)ccc2c1c1c(n2-c2ccc(OC)cc2)C(=O)c2ccccc2C1=O`, the TGI was 11.3 µM in test [1]; 73.3 µM in [2]; 39.5 µM in test [3]; 46.4 µM in test [4]; 25.6 µM in [5]; greater than 100 µM in test [6]. Besides, the TGI in test [7] was 51.5 µM; in [8], 56.3 µM; in test [9] it was greater than 100 µM; in test [10], greater than 100 µM; in [11] it was 15.2 µM; in test [12], 32.4 µM. The TGI in test [13] is greater than 100 µM; in test [14], 33.7 µM; in test [15] it was 48.3 µM; in test [16] it was 48 µM.
Consider `CN(C)c1ccc(N=Nc2cccc3ncccc23)cc1`, for which the TGI in [1], in [2], in [3], in [4], in test [5] and in [6] was greater than 100 µM in each case. In addition, the TGI is greater than 100 µM in [7]; greater than 73.8 µM in test [8]; greater than 100 µM in test [9]; greater than 100 µM in [10]; greater than 100 µM in [11]; greater than 100 µM in test [12]. The TGI in test [13], in [14], in [15] and in test [16] was greater than 100 µM in each case.
Turning to `OC(C/C(=N\N=C(/CC(O)(C(F)(F)F)C(F)(F)F)c1ccccc1)c1ccccc1)(C(F)(F)F)C(F)(F)F`, the TGI in [1], in test [2], in [3], in test [4], in [5] and in [6] was greater than 10 µM each time. Also, the TGI in test [7], in [8], in test [9], in test [10], in test [11] and in test [12] was greater than 10 µM throughout. For the same molecule, the TGI in [13], in test [14], in test [15] and in test [16] was greater than 10 µM in each case.
As for `CCOC(=O)C(=CNC(=S)Nc1c(CC)cccc1CC)C(=O)OCC`, the TGI in [1], in test [2], in test [3], in test [4], in test [5] and in [6] was greater than 100 µM throughout. The TGI was 92.6 µM in test [7]; greater than 100 µM in test [8]; greater than 100 µM in test [9]; greater than 100 µM in test [11]; greater than 100 µM in test [12]; greater than 100 µM in test [13]. The TGI in test [14], in test [15] and in test [16] was greater than 100 µM throughout.
As for `Nc1cccc(C#Cc2cccc(C#Cc3cccc(N)n3)n2)n1`, the TGI in test [1], in test [2], in test [3], in test [4], in test [5] and in test [7] was greater than 100 µM each time. For the same molecule, the TGI in test [8], in [9], in test [10], in test [12], in test [13] and in test [14] was greater than 100 µM each time. Further, the TGI in test [15] and in [16] was greater than 100 µM throughout.
For the molecule `CCCCc1ccc(Nc2nc(N)c3ncn(COCCO)c3n2)cc1`, the TGI in test [1] is 48.9 µM; in test [2], greater than 100 µM; in test [3], greater than 100 µM; in test [4] it was 75 µM; in [5], 65.6 µM; in test [7], 80.4 µM. For the same molecule, the TGI was 69.7 µM in [8]; 37.5 µM in test [9]; 38.6 µM in [10]; 57.2 µM in [11]; greater than 100 µM in test [12]; 45.3 µM in test [13]. The TGI in test [14] was 92.6 µM; in [15] it was greater than 100 µM; in test [16] it was 71.7 µM.
On to `O=C(CC(C(=O)c1cccs1)c1ccsc1)c1ccco1` (stereo unspecified), for which the TGI in test [1] was greater than 100 µM; in test [2], greater than 100 µM; in test [3] it was greater than 100 µM; in test [4], 47 µM; in [5], 99.2 µM; in [6], greater than 100 µM. Also, the TGI in [7] stood at 84.4 µM; in test [8] it was 54.1 µM; in test [10] it was 49.5 µM; in [11], 29.7 µM; in [12], 74.2 µM; in test [13] it was 43.5 µM. For the same molecule, the results for the TGI in [14], in test [15] and in test [16] were greater than 100 µM, greater than 100 µM and 43.6 µM, respectively.
On to `CC(C)c1nc2c(Cl)c3ncccc3cc2[nH]c1=O`, for which the TGI in [2], in test [4], in test [5], in test [6], in test [7] and in test [8] was greater than 100 µM in each case. The TGI in test [9], in test [10], in test [11], in [12], in test [13] and in test [14] was greater than 100 µM each time. Besides, the TGI in test [15] and in test [16] was greater than 100 µM each time.
In the case of `CN(C)/C=C/c1nnnn1-c1ccc(I)cc1`, the TGI in test [1] is greater than 100 µM; in test [2], 56.9 µM; in test [3], 87.1 µM; in test [4] it was 45.2 µM; in test [5], 63.1 µM; in [6], 65.7 µM. Also, the TGI in test [7] amounted to 32.2 µM; in [8], 68.8 µM; in test [10], 54.4 µM; in [11], 59.2 µM; in test [12], 51 µM; in test [13], 40.6 µM. Moreover, the figures for the TGI in test [14], in test [15] and in [16] were 72.2 µM, 74.5 µM and 63.5 µM, respectively.
